Experimental data as given in PubChem BioAssay (NCI).
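Assay format: 96-well plates, 48-hour exposure. Abbreviation: GI50, concentration required for 50% inhibition of growth. TGI is the concentration that stops growth completely.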

Experiments:
Test in all cases: NCI-60 cell line screen, 48 h
COLO 205 colon = tested on: COLO 205 colon
SR leukemia = tested on: SR leukemia
HCC-2998 colon = tested on: HCC-2998 colon
UACC-257 melanoma = tested on: UACC-257 melanoma
MDA-MB-468 breast = tested on: MDA-MB-468 breast
MDA-MB-435 = tested on: MDA-MB-435
KM12 colon = tested on: KM12 colon
SF-539 CNS = tested on: SF-539 CNS
NCI-H522 lung = tested on: NCI-H522 lung
SNB-19 CNS = tested on: SNB-19 CNS
OVCAR-4 ovarian = tested on: OVCAR-4 ovarian
BT-549 breast = tested on: BT-549 breast
NCI-H226 lung = tested on: NCI-H226 lung
SK-MEL-2 melanoma = tested on: SK-MEL-2 melanoma
NCI-H460 lung = tested on: NCI-H460 lung
SK-MEL-5 melanoma = tested on: SK-MEL-5 melanoma
T-47D breast = tested on: T-47D breast
DU-145 prostate = tested on: DU-145 prostate
PC-3 prostate = tested on: PC-3 prostate
OVCAR-5 ovarian = tested on: OVCAR-5 ovarian
M14 melanoma = tested on: M14 melanoma
SF-295 CNS = tested on: SF-295 CNS
NCI-H23 lung = tested on: NCI-H23 lung
RPMI-8226 leukemia = tested on: RPMI-8226 leukemia
SNB-75 CNS = tested on: SNB-75 CNS
UACC-62 melanoma = tested on: UACC-62 melanoma
OVCAR-3 ovarian = tested on: OVCAR-3 ovarian
OVCAR-8 ovarian = tested on: OVCAR-8 ovarian
HL-60(TB) leukemia = tested on: HL-60(TB) leukemia
U251 CNS = tested on: U251 CNS
K-562 leukemia = tested on: K-562 leukemia
ACHN renal = tested on: ACHN renal
RXF 393 renal = tested on: RXF 393 renal
MALME-3M melanoma = tested on: MALME-3M melanoma
CCRF-CEM leukemia = tested on: CCRF-CEM leukemia
HOP-62 NSCLC = tested on: HOP-62 NSCLC
HCT-116 colon = tested on: HCT-116 colon
A498 renal = tested on: A498 renal
A549 NSCLC = tested on: A549 NSCLC
UO-31 renal = tested on: UO-31 renal
HOP-92 NSCLC = tested on: HOP-92 NSCLC
HT29 colon = tested on: HT29 colon
NCI/ADR-RES ovarian = tested on: NCI/ADR-RES ovarian
HCT-15 colon = tested on: HCT-15 colon
MDA-MB-231 breast = tested on: MDA-MB-231 breast
TK-10 renal = tested on: TK-10 renal
EKVX NSCLC = tested on: EKVX NSCLC
SK-MEL-28 melanoma = tested on: SK-MEL-28 melanoma
SF-268 CNS = tested on: SF-268 CNS
MCF7 breast = tested on: MCF7 breast
HS 578T breast = tested on: HS 578T breast
SK-OV-3 ovarian = tested on: SK-OV-3 ovarian
MOLT-4 leukemia = tested on: MOLT-4 leukemia
CAKI-1 renal = tested on: CAKI-1 renal
IGROV1 ovarian = tested on: IGROV1 ovarian
SN12C renal = tested on: SN12C renal
SW-620 colon = tested on: SW-620 colon
786-0 renal = tested on: 786-0 renal
LOX IMVI melanoma = tested on: LOX IMVI melanoma

## CCCCCc1ccc(S(=O)(=O)N(C(C)=O)c2cc(-c3csc(N(C)C(C)=O)n3)ccc2N2CCN(C)CC2)cc1
COLO 205 colon
  GI50: 6.54 µM
  TGI: 15.5 µM
SR leukemia
  GI50: 1.23 µM
  TGI: 4.07 µM
HCC-2998 colon
  GI50: 6 µM
  TGI: 13.2 µM
UACC-257 melanoma
  GI50: 7.51 µM
  TGI: 15.5 µM
MDA-MB-468 breast
  GI50: 2.99 µM
  TGI: 11.9 µM
MDA-MB-435
  GI50: 2.97 µM
  TGI: 11.4 µM
KM12 colon
  GI50: 7.83 µM
  TGI: 17.2 µM
SF-539 CNS
  GI50: 7.18 µM
  TGI: 14.5 µM
NCI-H522 lung
  GI50: 8.69 µM
  TGI: 17.3 µM
SNB-19 CNS
  GI50: 8.81 µM
  TGI: 16.6 µM
OVCAR-4 ovarian
  GI50: 9.87 µM
  TGI: 23.6 µM
BT-549 breast
  GI50: 8.89 µM
  TGI: 17.9 µM
NCI-H226 lung
  GI50: 10.6 µM
  TGI: 24.1 µM
SK-MEL-2 melanoma
  GI50: 10.2 µM
  TGI: 19 µM
NCI-H460 lung
  GI50: 1.7 µM
  TGI: 6.22 µM
SK-MEL-5 melanoma
  GI50: 7.04 µM
  TGI: 14.4 µM
T-47D breast
  GI50: 7.66 µM
  TGI: 18 µM
DU-145 prostate
  GI50: 7.52 µM
  TGI: 15.4 µM
PC-3 prostate
  GI50: 6.48 µM
  TGI: 16.3 µM
OVCAR-5 ovarian
  GI50: 8.44 µM
  TGI: 16.2 µM
M14 melanoma
  GI50: 3.25 µM
  TGI: 12.2 µM
SF-295 CNS
  GI50: 2.56 µM
  TGI: 10.2 µM
NCI-H23 lung
  GI50: 8.92 µM
  TGI: 17.3 µM
RPMI-8226 leukemia
  GI50: 4.61 µM
  TGI: 19.1 µM
SNB-75 CNS
  GI50: 6.47 µM
  TGI: 14.2 µM
UACC-62 melanoma
  GI50: 9.44 µM
  TGI: 17.4 µM
OVCAR-3 ovarian
  GI50: 6.4 µM
  TGI: 15.1 µM
OVCAR-8 ovarian
  GI50: 9.42 µM
  TGI: 19.5 µM
HL-60(TB) leukemia
  GI50: 1.57 µM
  TGI: 6.24 µM
U251 CNS
  GI50: 7.12 µM
  TGI: 14.7 µM
K-562 leukemia
  GI50: 1.53 µM
  TGI: 59.3 µM
ACHN renal
  GI50: 8.86 µM
  TGI: 16.7 µM
RXF 393 renal
  GI50: 3.99 µM
  TGI: 13.3 µM
MALME-3M melanoma
  GI50: 7.61 µM
  TGI: 15.3 µM
CCRF-CEM leukemia
  GI50: 3.63 µM
  TGI: 13.7 µM
HOP-62 NSCLC
  GI50: 8.71 µM
  TGI: 17 µM
HCT-116 colon
  GI50: 2.17 µM
  TGI: 8.36 µM
A498 renal
  GI50: 8.43 µM
  TGI: 16.2 µM
A549 NSCLC
  GI50: 6.37 µM
  TGI: 13.8 µM
UO-31 renal
  GI50: 7.22 µM
  TGI: 14.6 µM
HOP-92 NSCLC
  GI50: 5.97 µM
  TGI: 16 µM
HT29 colon
  GI50: 2.11 µM
  TGI: 7.89 µM
NCI/ADR-RES ovarian
  GI50: 8.01 µM
  TGI: 17.3 µM
HCT-15 colon
  GI50: 2.13 µM
  TGI: 8.02 µM
MDA-MB-231 breast
  GI50: 4.01 µM
  TGI: 11.8 µM
TK-10 renal
  GI50: 9.62 µM
  TGI: 17.9 µM
EKVX NSCLC
  GI50: 7.7 µM
  TGI: 15.8 µM
SK-MEL-28 melanoma
  GI50: 7.98 µM
  TGI: 15.6 µM
SF-268 CNS
  GI50: 7.35 µM
  TGI: 18 µM
MCF7 breast
  GI50: 2.22 µM
  TGI: 8.7 µM
HS 578T breast
  GI50: 8.77 µM
  TGI: 25.6 µM
SK-OV-3 ovarian
  GI50: 9.9 µM
  TGI: 18.1 µM
MOLT-4 leukemia
  GI50: 2.31 µM
  TGI: 11.1 µM
CAKI-1 renal
  GI50: 6.19 µM
  TGI: 13.6 µM
IGROV1 ovarian
  GI50: 9.04 µM
  TGI: 16.9 µM
SN12C renal
  GI50: 7.7 µM
  TGI: 16.2 µM
SW-620 colon
  GI50: 1.51 µM
  TGI: 5.99 µM
786-0 renal
  GI50: 4.46 µM
  TGI: 13.5 µM
LOX IMVI melanoma
  GI50: 1.01 µM
  TGI: 1.9 µM
